Source: the NIST ThermoML archive (doi:10.1021/acs.jced.8b00936)
Numbers after ± are expanded uncertainties.

Conditions: 100 kPa, Liquid, Pycnometric method

CCCCOCCOCCCC [5,8-dioxadodecane]
mass density (273.15 K): 859.9 ± 4.9 kg/m3
mass density (283.15 K): 849.3 ± 4.8 kg/m3
